PMC9628480, “Discovery and structural characterization of chicoric acid as a SARS-CoV-2 nucleocapsid protein ligand and RNA binding disruptor” (Scientific Reports, 2022)
Where “and” joins values, the source holds several entries; their conditions need not be identical. Equal values may be shown once. Read-outs that look alike come from different tables or passages of the source. Numbered stars: 1 amine (or outer) side, 2 acyl side, 3 side chain; on linkers, the order of the positions; unused ones are H or OH. Bridge positions count the residues as written; N and C are the ends. Square brackets hold non-standard residues; d marks the D form. Peptide text beside a SMILES is read from it. * marks the point of attachment. hTyr(3S-OH,4S-OH,3'-OSO3H) = N[C@H](C(=O)O)[C@H](O)[C@@H](O)c1ccc(O)c(OS(=O)(=O)O)c1; Orn(4R-OH,5R-OH) = O=C([C@H](C[C@@H](O)[C@@H](O)N[*:3])N[*:1])[*:2]; Pro(3S-OH,4S-Me) = C[C@H]1CN[C@H](C(=O)O)[C@H]1O; X1 = CCCCCOc1ccc(-c2cc(-c3ccc(C(=O)*)cc3)no2)cc1; Gln(3R-OH) = NC(=O)C[C@@H](O)[C@H](N)C(=O)O; X2 = CC(C)CCCCCCCCC[C@H](CC(=O)[*:1])O[*:2]; Hyp = O=C(O)[C@@H]1C[C@@H](O)CN1

Tests used:
[1] = target: T1, SARS-CoV-2 N protein-RNA1 interaction (Severe acute respiratory syndrome coronavirus 2, UniProt P0DTC9); experiment: biochemical; assay type: binding; conditions: for loss in IC50 values in comparison to CA: single carboxylate at C1 versus CA
T1 construct: made in house; host or cells: Escherichia coli BL21 (DE3)

[2] = target: T1, SARS-CoV-2 N protein-RNA1 interaction; experiment: Primary FP HTS at 20 µM compound; assay type: binding; conditions: compound 20 µM
multiple human viruses = conditions: cited from earlier work
SARS-CoV-2 [3] = conditions: cited from earlier work
SARS-CoV-2 [4] = experiment: SARS-CoV-2 replication assay in Vero CCL81 cells (plaque assay); assay type: cell-based
SARS-CoV-2 [5] = experiment: SARS-CoV-2 replication assay in Calu-3 cells (plaque assay); assay type: cell-based
SARS-CoV-2 particles = experiment: Virucidal assay in Vero CCL-81 cells; assay type: cell-based; conditions: particles incubated with CA 25 or 100 µM for 1 h
N protein-RNA1 complex = target: T2, N protein-RNA1 complex (Severe acute respiratory syndrome coronavirus 2, UniProt P0DTC9); assay type: binding, SARS-CoV-2; conditions: protein:compound 1:2 ratio
T2 construct: made in house; host or cells: Escherichia coli BL21 (DE3)

[6] = target: T3, SARS-CoV-2 N protein (full-length) (Severe acute respiratory syndrome coronavirus 2, UniProt P0DTC9); experiment: DLS aggregation assay of N protein; conditions: compound 20 µM, two-fold molar excess
T3 construct: made in house; host or cells: Escherichia coli BL21 (DE3)
Procedure: Aggregation assays were performed with the full-length N protein diluted to 10 µM in 50 mM sodium phosphate buffer, 100 mM NaCl (pH, 7.6), with subsequent addition of 20 µM of each test compounds or 1% DMSO used as diluent. […] Samples were evaluated by DLS in a ZetaSizer NanoS (Malvern) equipment, at 10 °C, using default parameters set by the equipment.

[7] = read-out: IC50 for blocking the N protein-RNA1 interaction
[8] = IC50 for blocking the N protein-RNA1 interaction

| Compound | IC50 [1, 8] | also measured |
| --- | --- | --- |
| CCCCCCCCCCCCCCCc1cccc(O)c1C(=O)O [Anacardic Acid] | – | IC50 [1, 7]: 7.7 µM |
| O=C(O)c1cc(O)c2c(c1)[C@H]([C@H]1c3cc(C(=O)O)cc(O)c3C(=O)c3c(O[C@@H]4O[C@H](CO)[C@@H](O)[C@H](O)[C@H]4O)cccc31)c1cccc(O[C@@H]3O[C@H](CO)[C@@H](O)[C@H](O)[C@H]3O)c1C2=O [Sennoside A] | 5.7 µM | – |
| C[C@@H]1O[C@@H](O[C@@H]2[C@@H](O)[C@H](OCCc3ccc(O)c(O)c3)O[C@H](CO)[C@H]2OC(=O)/C=C/c2ccc(O)c(O)c2)[C@H](O)[C@H](O)[C@H]1O [verbascoside] | – | N protein-RNA1 disruption [2]: low |
| Oc1c(Cl)cc(Cl)c(Cl)c1Cc1c(O)c(Cl)cc(Cl)c1Cl [Hexachlorophene] | 13 µM | – |
| Oc1c(Cl)cc(Cl)cc1Sc1cc(Cl)cc(Cl)c1O [Bithionol] | 23 µM | – |
| O=c1ccc2[n+]([O-])c3ccc(O)cc3oc-2c1 [Resazurin] | 10.5 µM | – |
| CC(C)CCCCCCCCC[C@@H]1CC(=O)N[C@@H](CCC(=O)O)C(=O)N[C@@H](CC(C)C)C(=O)N[C@H](CC(C)C)C(=O)N[C@@H](C(C)C)C(=O)N[C@@H](CC(=O)O)C(=O)N[C@H](CC(C)C)C(=O)N[C@@H](CC(C)C)C(=O)O1 [Surfactin] (EL[dL]VD[dL]L; linker N-C via X2) | 11.1 µM | – |
| O=S(=O)(O)c1ccc(N=C2C=CC(=C(c3ccc(Nc4ccc(S(=O)(=O)O)cc4)cc3)c3ccc(Nc4ccc(S(=O)(=O)O)cc4)cc3)C=C2)cc1 [Methyl Blue] | – | IC50 [1, 7]: 4.2 µM |
| Cc1cc(/C=C(\C#N)C(=O)Nc2cccc(Br)c2)c(C)n1-c1ccc(C(=O)O)cc1 [RNPA1000] | – | IC50 [1, 7]: 9.6 µM |
| O=C(O)C[C@@H]1C(=O)O[C@H]2[C@H](OC(=O)c3cc(O)c(O)c(O)c3)[C@@H](OC(=O)c3cc(O)c(O)c4c3[C@H]1[C@H](O)C(=O)O4)[C@H](OC(=O)c1cc(O)c(O)c(O)c1)O[C@@H]2COC(=O)c1cc(O)c(O)c(O)c1 [Chebulinic acid] | – | in vitro antiviral potencies (multiple human viruses): low micromolar range |
| CN(Cc1ccc(C(C)(C)C)cc1)Cc1cccc2ccccc12 [Butenafine] | 15.7 µM | – |
| CC(C)(Sc1cc(C(C)(C)C)c(O)c(C(C)(C)C)c1)Sc1cc(C(C)(C)C)c(OC(=O)CCC(=O)O)c(C(C)(C)C)c1 [Succinobucol] | 8.1 µM | – |
| CC1=NN(c2ccc(C)c(C)c2)C(=O)/C1=N\Nc1cccc(-c2cccc(C(=O)O)c2)c1O [Eltrombopag] | 7.1 µM and 8.1 µM | – |
| COc1ccc2c(c1)C=C1Cn3c-2c(C2CCCCC2)c2ccc(cc23)C(=O)NS(=O)(=O)N(C)CCOCCN(C)C1=O [TMC647055] | 10 µM | – |
| CCCCCOc1ccc(-c2cc(-c3ccc(C(=O)N[C@H]4C[C@@H](O)[C@@H](O)NC(=O)[C@@H]5[C@@H](O)[C@@H](C)CN5C(=O)[C@H]([C@H](O)CC(N)=O)NC(=O)[C@H]([C@H](O)[C@@H](O)c5ccc(O)c(OS(=O)(=O)O)c5)NC(=O)[C@@H]5C[C@@H](O)CN5C(=O)[C@H]([C@@H](C)O)NC4=O)cc3)no2)cc1 [Micafungin] (X1-[Orn(4R-OH,5R-OH)]T[Hyp][hTyr(3S-OH,4S-OH,3'-OSO3H)][Gln(3R-OH)][Pro(3S-OH,4S-Me)]; lactam 1-C) | 10.4 µM | – |
| COc1ccc2c(O[C@@H]3C[C@H]4C(=O)N[C@]5(C(=O)NS(=O)(=O)C6CC6)C[C@H]5/C=C\CCCCN(C)C(=O)[C@@H]4C3)cc(-c3nc(C(C)C)cs3)nc2c1C [Simeprevir] | 16.5 µM | – |
| O=C(O[C@@H]1O[C@@H]2COC(=O)c3cc(O)c(O)c(O)c3-c3c(cc(O)c(O)c3O)C(=O)O[C@H]([C@H]1O)[C@@H]2O)c1cc(O)c(O)c(O)c1 [Corilagin] | 2.4 µM | – |
| C[C@@H](O)[C@H]1C(=O)N2C(C(=O)O)=C(S[C@@H]3CN[C@H](C(=O)Nc4cccc(C(=O)O)c4)C3)[C@H](C)[C@H]12 [Ertapenem sodium] | – | IC50 [1, 7]: 13.8 µM |
| Verteporfin | – | IC50 [1, 7]: 10.8 µM |
| COc1ccc2cc(-c3cc(-c4cc(Cl)cc(Cl)c4)nn3[C@@H](C)c3ccc(C(=O)NCCC(=O)O)cc3)ccc2c1 [MK 0893] | 14.4 µM | – |
| C[C@@H]1NC(=O)[C@@H]2CCCN2C(=O)[C@H](CC(N)=O)NC(=O)[C@@H]2CSSC[C@H](N)C(=O)N[C@H]3CSSC[C@H](NC1=O)C(=O)N[C@@H]([C@@H](C)O)C(=O)NCC(=O)N[C@H](C(=O)N[C@@H](Cc1ccc(O)cc1)C(=O)O)CSSC[C@H](NC(=O)[C@H](Cc1ccc(O)cc1)NC(=O)[C@H](CCC(=O)O)NC3=O)C(=O)N2 [Linaclotide] (H-CCEYCCNPACTGCY-OH; disulfide 1-6, 2-10, 5-13) | 5.5 µM | – |

| Compound | IC50 [1, 8] | also measured |
| --- | --- | --- |
| O=C(NCc1ccc(Oc2ccccc2)cc1)c1nc(-c2cc(Br)c(O)c(Br)c2)no1 [IOWH-032] | – | IC50 [1, 7]: 7.7 µM |
| O=C(/C=C/c1ccc(O)c(O)c1)O[C@H](Cc1ccc(O)c(O)c1)C(=O)O [rosmarinic acid] | – | N protein-RNA1 disruption [2]: low |
| Cc1cc2c(C(C)C)c(O)c(O)c(C=O)c2c(O)c1-c1c(C)cc2c(C(C)C)c(O)c(O)c(C=O)c2c1O [(R)-(-)-Gossypol acetic acid] | – | IC50 [1, 7]: 6.4 µM |
| O=C(/C=C/c1ccc(O)c(O)c1)O[C@H]1[C@H](O)C[C@](O)(C(=O)O)C[C@H]1OC(=O)/C=C/c1ccc(O)c(O)c1 [4,5-Dicaffeoylquinic acid] | – | IC50 [1, 7]: 3 µM; loss in IC50 values in comparison to CA [1]: ~ 10 fold |
| Cc1cc2c(C(C)C)c(O)c(O)c(C=O)c2c(O)c1-c1c(C)cc2c(C(C)C)c(O)c(O)c(C=O)c2c1O [Gossypol acetic acid] | 7.1 µM | – |
| O=C(/C=C/c1ccc(O)c(O)c1)O[C@@H]1CC(O)(C(=O)O)C[C@@H](OC(=O)/C=C/c2ccc(O)c(O)c2)C1O (some centres unmarked) [Isochlorogenic acid A, 3,5-dicaffeoylquinic acid] | – | IC50 [1, 7]: 5.5 µM; loss in IC50 values in comparison to CA [1]: ~ 10 fold |
| COc1cc(C(=O)NS(=O)(=O)c2ccccc2C)ccc1Cc1cn(C)c2ccc(NC(=O)OC3CCCC3)cc12 [Zafirlukast] | 10.4 µM | – |
| O=C(Nc1cccc2c(=O)cc(-c3nnn[nH]3)oc12)c1ccc(OCCCCc2ccccc2)cc1 [Pranlukast (hemihydrate), Pranlukast] | 7.8 µM | – |
| CCCCCCO[C@@H](C)c1cccc(-c2csc(NC(=O)c3cc(Cl)c(/C=C(\C)C(=O)O)c(Cl)c3)n2)c1OC [Lusutrombopag] | 6 µM | – |
| CCCCCCCCCCCC1=C(O)C(=O)C=C(O)C1=O [Embelin] | 5 µM | – |
| O=C(OC[C@H]1O[C@@H](OC(=O)c2cc(O)c(O)c(O)c2)[C@H](OC(=O)c2cc(O)c(O)c(O)c2)[C@@H](OC(=O)c2cc(O)c(O)c(O)c2)[C@@H]1OC(=O)c1cc(O)c(O)c(O)c1)c1cc(O)c(O)c(O)c1 [Pentagalloylglucose] | 11.6 µM | – |
| O=C1OC[C@H]2OC(O)[C@H](O)[C@@H](O)[C@@H]2OC(=O)c2cc(O)c(O)c(O)c2-c2c(O)c(O)c3oc(=O)c4c(c(O)c(O)c5oc(=O)c2c3c54)-c2c1cc(O)c(O)c2O (mixture of isomers) [Punicalin] | 0.7 µM | in vitro antiviral potencies (multiple human viruses): low micromolar range |
| CCCCCCCC/C=C\CCCCCCCC(=O)O [Oleic acid] | 15.7 µM | – |
| Cc1ccc(C(=O)Nc2ccc(S(=O)(=O)O)c3cc(S(=O)(=O)O)cc(S(=O)(=O)O)c23)cc1NC(=O)c1cccc(NC(=O)Nc2cccc(C(=O)Nc3cc(C(=O)Nc4ccc(S(=O)(=O)O)c5cc(S(=O)(=O)O)cc(S(=O)(=O)O)c45)ccc3C)c2)c1 [Suramin] | 0.8 µM | concentration reported to inhibit SARS-CoV-2 infection in cell culture (SARS-CoV-2 [3]): 20 µM |
| L-Chicoric acid | – | antiviral activity at 25 and 100 µM (SARS-CoV-2 [4]): antiviral activity at 100 µM only; reduction in infectious viral load (SARS-CoV-2 [4]): tenfold; antiviral activity at 25 and 100 µM (SARS-CoV-2 [5]): antiviral activity at 100 µM only; reduction in infectious viral load (SARS-CoV-2 [5]): 100 fold; virucidal activity against SARS-CoV-2 (SARS-CoV-2 particles): slight virucidal activity |
| Tannic acid | – | IC50 [1, 7]: 1.4 µM |
| COc1cc(C(=O)O)ccc1NC(=O)[C@@H]1N[C@@H](CC(C)(C)C)[C@](C#N)(c2ccc(Cl)cc2F)[C@H]1c1cccc(Cl)c1F [Idasanutlin] | 6.5 µM | – |
| Cc1ccnc(NS(=O)(=O)c2ccc(N)cc2)n1 [Sulfamerazine] | 6.5 µM | – |
| CC(C)=CCOc1ccc(/C=C/C(=O)c2ccc(OCC=C(C)C)cc2OCC(=O)O)cc1 [Sofalcone] | 18.5 µM | – |
| O=C(O)c1cc(O)c(O)c(O)c1 [Gallic acid] | 23.3 µM | – |
| O=C1O[C@H]2[C@@H]3OC(=O)c4cc(O)c(O)c(O)c4-c4c(O)c(O)c5oc(=O)c6c(c(O)c(O)c7oc(=O)c4c5c76)-c4c(cc(O)c(O)c4O)C(=O)OC[C@H]3OC(O)[C@@H]2OC(=O)c2cc(O)c(O)c(O)c2-c2c1cc(O)c(O)c2O (mixture of isomers) [Punicalagin] | 0.7 µM | binding affinity of the N protein to RNA1 in the presence of compound (N protein-RNA1 complex): significantly reduced; effect on hydrodynamic radius (Rh) / oligomeric state of the N protein (DLS) [6]: appears to cause N protein aggregation; in vitro antiviral potencies (multiple human viruses): low micromolar range |
